What all share (format): biochemical
Assay [1] addresses T1, ram seminal vesicle COX-1 (Ovis aries, UniProt P05979).
T1 construct: ram seminal vesicle COX-1 (1 U) (Sigma–Aldrich); purchased Sigma–Aldrich; host or cells: ram seminal vesicle (tissue of origin)
T1 sequence (P05979 25-600): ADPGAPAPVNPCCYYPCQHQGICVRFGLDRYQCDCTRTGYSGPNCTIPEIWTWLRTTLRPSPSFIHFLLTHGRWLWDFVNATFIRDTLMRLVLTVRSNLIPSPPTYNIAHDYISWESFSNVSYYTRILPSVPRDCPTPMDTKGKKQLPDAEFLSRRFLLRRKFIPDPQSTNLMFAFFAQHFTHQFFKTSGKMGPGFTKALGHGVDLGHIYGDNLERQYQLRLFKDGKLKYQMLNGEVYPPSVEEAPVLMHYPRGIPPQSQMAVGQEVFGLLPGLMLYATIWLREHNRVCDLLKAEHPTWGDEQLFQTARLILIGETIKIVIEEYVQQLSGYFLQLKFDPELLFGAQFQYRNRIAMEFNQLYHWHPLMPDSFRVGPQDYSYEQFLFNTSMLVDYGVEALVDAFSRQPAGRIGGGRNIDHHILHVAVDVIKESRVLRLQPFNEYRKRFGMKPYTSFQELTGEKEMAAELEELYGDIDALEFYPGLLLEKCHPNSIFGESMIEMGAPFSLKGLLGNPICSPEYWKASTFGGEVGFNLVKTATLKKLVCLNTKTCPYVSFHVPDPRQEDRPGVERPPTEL
Briefly: COX-1 inhibition assay (PGE2 EIA). The conditions noted are these: triplicates; for inhibition at 20 µM: read-out: % inhibition at 20µM, COX-1.

The target in another assay is T2, human recombinant COX-2 (Homo sapiens, UniProt P35354).
T2 construct: purchased Sigma–Aldrich
T2 sequence (P35354 18-604): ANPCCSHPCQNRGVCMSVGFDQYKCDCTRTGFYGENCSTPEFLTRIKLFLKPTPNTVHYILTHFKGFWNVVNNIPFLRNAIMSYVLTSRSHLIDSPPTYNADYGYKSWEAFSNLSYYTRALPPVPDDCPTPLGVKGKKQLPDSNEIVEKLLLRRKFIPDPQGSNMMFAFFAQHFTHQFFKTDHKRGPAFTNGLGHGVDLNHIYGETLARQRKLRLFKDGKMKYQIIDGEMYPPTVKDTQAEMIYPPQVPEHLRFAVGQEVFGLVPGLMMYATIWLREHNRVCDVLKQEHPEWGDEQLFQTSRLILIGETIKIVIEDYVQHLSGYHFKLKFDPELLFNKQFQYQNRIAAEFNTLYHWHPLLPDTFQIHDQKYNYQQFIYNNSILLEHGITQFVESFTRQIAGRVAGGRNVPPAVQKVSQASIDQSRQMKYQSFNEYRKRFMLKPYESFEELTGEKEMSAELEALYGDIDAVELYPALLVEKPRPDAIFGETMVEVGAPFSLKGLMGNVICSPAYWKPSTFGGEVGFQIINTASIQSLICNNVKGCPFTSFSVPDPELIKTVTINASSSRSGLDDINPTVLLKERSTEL
Briefly: COX-2 inhibition assay (PGE2 EIA). The conditions noted are these: for inhibition at 20 µM: read-out: % inhibition at 20µM, COX-2.

The next assay has as its system COX. Description: Biological testing for COX-inhibiting activity, overall outcome on both isoforms. The conditions noted are these: for COX isoform selectivity: COX-1 versus COX-2.
The mark [2] stands for this setting: biological testing of this study.

Where two headings read alike, the source gives them in different places.

The values that follow come from publication PMC4444576, “Prospective performance evaluation of selected common virtual screening tools. Case study: Cyclooxygenase (COX) 1 and 2” (European Journal of Medicinal Chemistry, 2015).

Regarding `NS(=O)(=O)c1cc(C(=O)O)c(NCc2ccco2)cc1Cl` [Furosemid], the “% inhibition at 20µM, COX-1” value in assay [1] is given as -1.07 ± 17.3%. In addition, the “% inhibition at 20µM, COX-2” value at human recombinant COX-2 was found to be 8.7 ± 8.9%. In addition, in the assay on COX, the outcome was Inactive.

As to `NS(=O)(=O)c1cc2c(cc1Cl)N=C(CSCc1ccccc1)NS2(=O)=O` [Benzothiazide], the inhibition at 20 µM in assay [1] was 16.6 ± 18.6%; at human recombinant COX-2 (20 µM, triplicates), -7.4 ± 25.8%. Further, in the assay with COX (setting [2]), the outcome was Inactive.

In the case of `O=C(O)COc1ccc(C(=O)c2cccs2)c(Cl)c1Cl` [Ticrynafen], the inhibition at 20 µM in assay [1] is -6.2 ± 6.1%; on human recombinant COX-2 (20 µM, triplicates), 18.4 ± 6.1%. Further, in the assay with COX (setting [2]), the outcome was Inactive.

As to `O=S(=O)([O-])c1ccc(N=Nc2ccc(O)cc2O)cc1.[Na+]` [Acid orange 6], the “% inhibition at 20µM, COX-1” value in assay [1] is -1.2 ± 6.0%. Also, on human recombinant COX-2 (20 µM, triplicates), the “% inhibition at 20µM, COX-2” value is -0.1 ± 5.6%. For the same compound, in the assay with COX (setting [2]), the outcome was Inactive.

With `[Cl-].c1ccc(-c2nn(-c3ccccc3)[n+](-c3ccccc3)n2)cc1` [Triphenyltetrazol], the “% inhibition at 20µM, COX-1” value in assay [1] was 13.6 ± 14.4%. The “% inhibition at 20µM, COX-2” value at human recombinant COX-2 (20 µM, triplicates) turned out to be 2.9 ± 7.3%. The result in the assay with COX (setting [2]) was Inactive.

Consider `C#C[C@]1(O)CC[C@H]2[C@@H]3CCC4=C(CCC(=O)C4)[C@H]3CC[C@@]21C` [Norethynodrel], for which the inhibition at 20 µM in assay [1] was 21 ± 10.9%; on human recombinant COX-2 (20 µM, triplicates) it was -11.6 ± 32.2%. Further, in the assay on COX (setting [2]), the result was Inactive.

As for `O=S(=O)(O)Oc1ccc(C(c2ccc(OS(=O)(=O)O)cc2)c2ccccn2)cc1` [Picosulfate sodium], the inhibition at 20 µM is 8.3 ± 21% in assay [1] and -11 ± 29.4% on human recombinant COX-2 (20 µM, triplicates). The outcome in the assay on COX (setting [2]) was Inactive.

As to `NS(=O)(=O)c1cc(-c2nnn[nH]2)c(NCc2cccs2)cc1Cl` [Azosemide], the inhibition at 20 µM in assay [1] is -9.9 ± 25.6%; at human recombinant COX-2 (20 µM, triplicates), -1.1 ± 4.7%. For the same compound, the outcome in the assay on COX (setting [2]) was Inactive.

In the case of `CC(=O)Oc1ccc(C2(c3ccc(OC(C)=O)cc3)C(=O)Nc3ccccc32)cc1` [Oxyphenisatin acetate], the inhibition at 20 µM was -3.2 ± 27.9% in assay [1] and -1.8 ± 11.1% on human recombinant COX-2 (20 µM, triplicates). Also, the outcome with COX (setting [2]) was Inactive.

On to `C#C[C@]1(O)CC[C@H]2[C@@H]3CCc4cc(OC)ccc4[C@H]3CC[C@@]21C` [17α-ethinylestradiol-3-methylether], for which, in assay [1], the “% inhibition at 20µM, COX-1” value is on record as 2.6 ± 11.9%. Further, on human recombinant COX-2, the “% inhibition at 20µM, COX-2” value is recorded as -10.9 ± 31.4%. For the same compound, in the assay with COX, the result was Inactive.

With `NS(=O)(=O)c1ccc(N2CCCCS2(=O)=O)cc1` [Sulthiame], the inhibition at 20 µM in assay [1] is 3.7 ± 9.3%; on human recombinant COX-2 (20 µM, triplicates) it was -0.9 ± 13.6%. Besides, in the assay on COX (setting [2]), the outcome was Inactive.

Consider `CC(=O)Nc1ccc(-c2ccccc2)cc1` [p-phenylacetanilide], for which the “% inhibition at 20µM, COX-1” value in assay [1] turned out to be 5.8 ± 18.3%. The “% inhibition at 20µM, COX-2” value at human recombinant COX-2 (20 µM, triplicates) is -1.6 ± 8.3%. Further, the outcome in the assay on COX (setting [2]) was Inactive.

As to `COC(=O)c1ccccc1C(=O)c1ccc(OCCN2CCCCC2)cc1` [Pitofenone], the inhibition at 20 µM in assay [1] was -4.7 ± 16.2%; on human recombinant COX-2 (20 µM, triplicates), 14.1 ± 18.4%. In the assay with COX (setting [2]), the outcome was Inactive.

For `O=C(N[C@H](CO)[C@H](O)c1ccc([N+](=O)[O-])cc1)C(Cl)Cl` [Chloramphenicol], the inhibition at 20 µM is -1.7 ± 9.5% in assay [1] and 10.7 ± 10.7% at human recombinant COX-2 (20 µM, triplicates). In the assay with COX (setting [2]), the result was Inactive.

Consider `C/C=C(/C(=C/C)c1ccc(OC(C)=O)cc1)c1ccc(OC(C)=O)cc1` [Dienestrol diacetate (5), Dienestrol diacetate], for which the 50% inhibitory concentration (IC50) in assay [1] (average of at least two independent experiments, read-out: IC50 COX-1) was 4.2 ± 1.5 µM; at human recombinant COX-2 (average of at least two independent experiments, triplicates, read-out: IC50 COX-2) it was 2 ± 0.9 µM. Also, the COX isoform selectivity result with COX is given as “unselective COX-inhibitor”; in the assay with COX (listed as dienestrol diactetate (5)), “inhibited both isoforms”. Also, the outcome with COX (setting [2]) was Active.

`CNC(=C[N+](=O)[O-])NCCSCc1ccc(CN(C)C)o1` [Ranitidine]: the inhibition at 20 µM in assay [1] was -11 ± 9.6%; at human recombinant COX-2 (20 µM, triplicates), 12.7 ± 5.1%. Further, the result in the assay with COX (setting [2]) was Inactive.

Broadly, the % inhibition is the drop in the measured response relative to a control, in per cent. By inhibition is commonly meant the change of the read-out against control, counted positive when it falls. In general, IC50 refers to the concentration that gives 50% inhibition.
